According to patent US20090299044A1 (priority 2006, published 2009):
Bridge positions count the residues as written; N and C are the ends. Square brackets hold non-standard residues; d marks the D form. Peptide text beside a SMILES is read from it. 1Nal = N[C@@H](Cc1cccc2ccccc12)C(=O)O

Tests used:
human Kv1.3 (CHO) = target: T1, human Kv1.3 (CHO) (Homo sapiens, UniProt P22001); experiment: cell-based
T1 construct: expressed in transfected cells; host or cells: CHO

human Kv1.1 (HEK293) = target: T2, human Kv1.1 (HEK293) (Homo sapiens, UniProt Q09470); experiment: cell-based
T2 construct: expressed in transfected cells; host or cells: HEK293
T2 sequence (Q09470 whole entry): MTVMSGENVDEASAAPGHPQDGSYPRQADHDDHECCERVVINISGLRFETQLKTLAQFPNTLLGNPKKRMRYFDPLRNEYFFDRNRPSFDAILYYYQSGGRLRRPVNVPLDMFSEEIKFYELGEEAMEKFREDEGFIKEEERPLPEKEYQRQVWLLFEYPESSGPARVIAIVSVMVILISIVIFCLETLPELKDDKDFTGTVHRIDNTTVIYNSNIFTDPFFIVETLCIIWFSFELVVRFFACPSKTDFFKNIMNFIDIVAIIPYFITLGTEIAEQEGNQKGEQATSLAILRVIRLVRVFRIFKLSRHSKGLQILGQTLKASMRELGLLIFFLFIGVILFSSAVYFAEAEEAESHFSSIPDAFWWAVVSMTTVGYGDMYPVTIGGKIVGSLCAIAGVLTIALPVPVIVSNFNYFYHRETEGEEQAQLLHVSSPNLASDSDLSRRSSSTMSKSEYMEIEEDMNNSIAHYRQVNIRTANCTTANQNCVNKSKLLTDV

T1 sequence (P22001 whole entry): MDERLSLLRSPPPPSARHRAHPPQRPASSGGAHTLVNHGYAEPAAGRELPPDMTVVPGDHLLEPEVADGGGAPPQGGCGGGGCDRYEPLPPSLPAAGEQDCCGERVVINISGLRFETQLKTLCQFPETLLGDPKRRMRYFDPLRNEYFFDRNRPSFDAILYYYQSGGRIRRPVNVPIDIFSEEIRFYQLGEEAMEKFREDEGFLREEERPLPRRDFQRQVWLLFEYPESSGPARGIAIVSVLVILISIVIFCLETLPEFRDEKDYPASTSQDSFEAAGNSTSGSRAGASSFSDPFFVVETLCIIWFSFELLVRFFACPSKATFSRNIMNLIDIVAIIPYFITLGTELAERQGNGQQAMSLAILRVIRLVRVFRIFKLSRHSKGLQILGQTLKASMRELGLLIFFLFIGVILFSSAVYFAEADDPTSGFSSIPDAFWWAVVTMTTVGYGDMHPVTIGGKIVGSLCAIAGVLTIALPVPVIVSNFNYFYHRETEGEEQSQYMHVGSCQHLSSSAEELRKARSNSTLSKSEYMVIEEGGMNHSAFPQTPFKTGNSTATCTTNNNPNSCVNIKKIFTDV

CC[C@H](C)[C@@H]1NC(=O)[C@H](CCCCN)NC(=O)[C@@H](NC(=O)[C@H](CCCCN)NC(=O)[C@@H](NC(=O)[C@H](CC(N)=O)NC(=O)[C@@H](NC(=O)[C@@H](NC(=O)[C@@H](NC(=O)CN)C(C)C)[C@@H](C)CC)[C@@H](C)CC)C(C)C)CSSC[C@@H]2NC(=O)[C@H](CCC(=O)O)NC(=O)CNC(=O)[C@H](Cc3ccccc3)NC(=O)[C@H](CCCNC(=N)N)NC(=O)[C@H](CCSC)NC(=O)CNC(=O)[C@H](C)NC(=O)[C@H](CCCCN)NC(=O)[C@H](CCCCN)NC(=O)[C@@H]3CSSC[C@@H](C(=O)N[C@H](C(=O)N4CCC[C@H]4C(=O)N[C@@H](CCCCN)C(=O)O)[C@@H](C)O)NC(=O)[C@H](Cc4c[nH]cn4)NC(=O)[C@H](CSSC[C@H](NC(=O)[C@H](CCC(N)=O)NC(=O)[C@H](CCCNC(=N)N)NC(=O)[C@H](CO)NC1=O)C(=O)N[C@@H](CC(C)C)C(=O)N[C@@H](CCC(=O)O)C(=O)N1CCC[C@H]1C(=O)N3)NC(=O)[C@H](CCCCN)NC(=O)CNC(=O)[C@H](CC(N)=O)NC(=O)[C@H](CCSC)NC2=O [K27E] (H-GVIINVKCKISRQCLEPCKKAGMRFGECMNGKCHCTPK-OH; disulfide 8-28, 14-33, 18-35)
IC50 (human Kv1.3 (CHO)): > 3330 pM | IC50 (human Kv1.1 (HEK293)): 549 pM

CC[C@H](C)[C@@H]1NC(=O)[C@H](CCCCN)NC(=O)[C@@H](NC(=O)[C@H](CCCCN)NC(=O)[C@@H](NC(=O)[C@H](CC(N)=O)NC(=O)[C@@H](NC(=O)[C@@H](NC(=O)[C@@H](NC(=O)CN)C(C)C)[C@@H](C)CC)[C@@H](C)CC)C(C)C)CSSC[C@@H]2NC(=O)[C@H](Cc3cccc4ccccc34)NC(=O)CNC(=O)[C@H](Cc3ccccc3)NC(=O)[C@H](CCCNC(=N)N)NC(=O)[C@H](CCSC)NC(=O)CNC(=O)[C@H](C)NC(=O)[C@H](CCCCN)NC(=O)[C@H](CCCCN)NC(=O)[C@@H]3CSSC[C@@H](C(=O)N[C@H](C(=O)N4CCC[C@H]4C(=O)N[C@@H](CCCCN)C(=O)O)[C@@H](C)O)NC(=O)[C@H](Cc4c[nH]cn4)NC(=O)[C@H](CSSC[C@H](NC(=O)[C@H](CCC(N)=O)NC(=O)[C@H](CCCNC(=N)N)NC(=O)[C@H](CO)NC1=O)C(=O)N[C@@H](CC(C)C)C(=O)N[C@@H](CCC(=O)O)C(=O)N1CCC[C@H]1C(=O)N3)NC(=O)[C@H](CCCCN)NC(=O)CNC(=O)[C@H](CC(N)=O)NC(=O)[C@H](CCSC)NC2=O [K27Nal] (H-GVIINVKCKISRQCLEPCKKAGMRFG[1Nal]CMNGKCHCTPK-OH; disulfide 8-28, 14-33, 18-35)
IC50 (human Kv1.3 (CHO)): > 3330 pM | IC50 (human Kv1.1 (HEK293)): 1040 pM

CC[C@H](C)[C@@H]1NC(=O)[C@H](CCCCN)NC(=O)[C@@H](NC(=O)[C@H](CCCCN)NC(=O)[C@@H](NC(=O)[C@H](CC(N)=O)NC(=O)[C@@H](NC(=O)[C@@H](NC(=O)[C@@H](NC(=O)CN)C(C)C)[C@@H](C)CC)[C@@H](C)CC)C(C)C)CSSC[C@@H]2NC(=O)[C@H](CCCNC(=N)N)NC(=O)CNC(=O)[C@H](Cc3ccccc3)NC(=O)[C@H](CCCNC(=N)N)NC(=O)[C@H](CCSC)NC(=O)CNC(=O)[C@H](C)NC(=O)[C@H](CCCCN)NC(=O)[C@H](CCCCN)NC(=O)[C@@H]3CSSC[C@@H](C(=O)N[C@H](C(=O)N4CCC[C@H]4C(=O)N[C@@H](CCCCN)C(=O)O)[C@@H](C)O)NC(=O)[C@H](Cc4c[nH]cn4)NC(=O)[C@H](CSSC[C@H](NC(=O)[C@H](CCC(N)=O)NC(=O)[C@H](CCCNC(=N)N)NC(=O)[C@H](CO)NC1=O)C(=O)N[C@@H](CC(C)C)C(=O)N[C@@H](CCC(=O)O)C(=O)N1CCC[C@H]1C(=O)N3)NC(=O)[C@H](CCCCN)NC(=O)CNC(=O)[C@H](CC(N)=O)NC(=O)[C@H](CCSC)NC2=O [K27R] (H-GVIINVKCKISRQCLEPCKKAGMRFGRCMNGKCHCTPK-OH; disulfide 8-28, 14-33, 18-35)
IC50 (human Kv1.3 (CHO)): 1490 pM | IC50 (human Kv1.1 (HEK293)): > 3330 pM

CC[C@H](C)[C@@H]1NC(=O)[C@H](CCCCN)NC(=O)[C@@H](NC(=O)[C@H](CCCCN)NC(=O)[C@@H](NC(=O)[C@H](CC(N)=O)NC(=O)[C@@H](NC(=O)[C@@H](NC(=O)[C@@H](NC(=O)CN)C(C)C)[C@@H](C)CC)[C@@H](C)CC)C(C)C)CSSC[C@@H]2NC(=O)[C@H](CCCCN)NC(=O)CNC(=O)[C@H](Cc3ccccc3)NC(=O)[C@H](CCCNC(=N)N)NC(=O)[C@H](CCSC)NC(=O)CNC(=O)[C@H](C)NC(=O)[C@H](CCCCN)NC(=O)[C@H](CCCCN)NC(=O)[C@@H]3CSSC[C@@H](C(=O)N[C@H](C(=O)N4CCC[C@H]4C(=O)N[C@@H](CCCCN)C(=O)O)[C@@H](C)O)NC(=O)[C@H](Cc4c[nH]cn4)NC(=O)[C@H](CSSC[C@H](NC(=O)[C@H](CCC(N)=O)NC(=O)[C@H](CCCNC(=N)N)NC(=O)[C@H](CO)NC1=O)C(=O)N[C@@H](CC(C)C)C(=O)N[C@@H](CCC(=O)O)C(=O)N1CCC[C@H]1C(=O)N3)NC(=O)[C@H](CCC(=O)O)NC(=O)CNC(=O)[C@H](CC(N)=O)NC(=O)[C@H](CCSC)NC2=O [K32E] (H-GVIINVKCKISRQCLEPCKKAGMRFGKCMNGECHCTPK-OH; disulfide 8-28, 14-33, 18-35)
IC50 (human Kv1.3 (CHO)): 15.6 pM | IC50 (human Kv1.1 (HEK293)): 17.3 pM

CC[C@H](C)[C@@H]1NC(=O)[C@H](CCCCN)NC(=O)[C@@H](NC(=O)[C@H](CCCCN)NC(=O)[C@@H](NC(=O)[C@H](CC(N)=O)NC(=O)[C@@H](NC(=O)[C@@H](NC(=O)[C@@H](NC(=O)CN)C(C)C)[C@@H](C)CC)[C@@H](C)CC)C(C)C)CSSC[C@@H]2NC(=O)[C@H](CCCCN)NC(=O)CNC(=O)[C@H](Cc3ccccc3)NC(=O)[C@H](CCCNC(=N)N)NC(=O)[C@H](CCSC)NC(=O)CNC(=O)[C@H](C)NC(=O)[C@H](CCCCN)NC(=O)[C@H](CCCCN)NC(=O)[C@@H]3CSSC[C@@H](C(=O)N[C@H](C(=O)N4CCC[C@H]4C(=O)N[C@@H](CCCCN)C(=O)O)[C@@H](C)O)NC(=O)[C@H](Cc4c[nH]cn4)NC(=O)[C@H](CSSC[C@H](NC(=O)[C@H](CCC(N)=O)NC(=O)[C@H](CCCNC(=N)N)NC(=O)[C@H](CO)NC1=O)C(=O)N[C@@H](CC(C)C)C(=O)N[C@@H](CCC(=O)O)C(=O)N1CCC[C@H]1C(=O)N3)NC(=O)[C@H](CCCNC(=N)N)NC(=O)CNC(=O)[C@H](CC(N)=O)NC(=O)[C@H](CCSC)NC2=O [K32R] (H-GVIINVKCKISRQCLEPCKKAGMRFGKCMNGRCHCTPK-OH; disulfide 8-28, 14-33, 18-35)
IC50 (human Kv1.3 (CHO)): 30.8 pM | IC50 (human Kv1.1 (HEK293)): 7.24 pM

CC[C@H](C)[C@@H]1NC(=O)[C@H](CCCCN)NC(=O)[C@@H](NC(=O)[C@H](CCCCN)NC(=O)[C@@H](NC(=O)[C@H](CC(N)=O)NC(=O)[C@@H](NC(=O)[C@@H](NC(=O)[C@@H](NC(=O)CN)C(C)C)[C@@H](C)CC)[C@@H](C)CC)C(C)C)CSSC[C@@H]2NC(=O)[C@H](CCCCN)NC(=O)CNC(=O)[C@H](Cc3ccccc3)NC(=O)[C@H](CCCNC(=N)N)NC(=O)[C@H](CCSC)NC(=O)CNC(=O)[C@H](C)NC(=O)[C@H](CCCCN)NC(=O)[C@H](CCCCN)NC(=O)[C@@H]3CSSC[C@@H](C(=O)N[C@H](C(=O)N4CCC[C@H]4C(=O)N[C@@H](CCC(=O)O)C(=O)O)[C@@H](C)O)NC(=O)[C@H](Cc4c[nH]cn4)NC(=O)[C@H](CSSC[C@H](NC(=O)[C@H](CCC(N)=O)NC(=O)[C@H](CCCNC(=N)N)NC(=O)[C@H](CO)NC1=O)C(=O)N[C@@H](CC(C)C)C(=O)N[C@@H](CCC(=O)O)C(=O)N1CCC[C@H]1C(=O)N3)NC(=O)[C@H](CCCCN)NC(=O)CNC(=O)[C@H](CC(N)=O)NC(=O)[C@H](CCSC)NC2=O [K38E] (H-GVIINVKCKISRQCLEPCKKAGMRFGKCMNGKCHCTPE-OH; disulfide 8-28, 14-33, 18-35)
IC50 (human Kv1.3 (CHO)): 25.8 pM | IC50 (human Kv1.1 (HEK293)): 34.3 pM
